Reference: PMC8347709 (International Journal of Molecular Sciences, 2021)
Where “and” joins values, the source holds several entries; their conditions need not be identical. Equal values may be shown once.

Experiments:
[1] = stability of the formulated product; format: physicochemical; settings: in saline, within 24 h at room temperature
Procedure: The purification of the product was performed by semipreparative HPLC (Figure 3), followed by trapping on a Sep-Pack C18-light cartridge and elution with EtOH. For biological experiments, the solvent was evaporated under a stream of nitrogen at 70 °C until a volume of about 20–30 µL remained. The product was formulated by using 280 µL saline (0.9% aqueous NaCl). The total synthesis time was about 70 min. […] A logD7.4 of 3.15 ± 0.25 was determined by the shake flask method, which is in accordance with the calculated cLogP of 3.0 (ChemDraw Professional 19.0).

[2] = quantification of radiometabolites in vivo; settings: female CD-1 mice, 30 min p.i.
Procedure: Radiochemical yield, radiochemical purity and analyses of plasma and brain samples were assessed via reversed-phase HPLC (RP-HPLC) in gradient mode (0–10 min: 10% MeCN/20 mM NH4OAcaq., 10–30 min: 10%→90% MeCN/20 mM NH4OAcaq., 30–35 min: 90% MeCN/20 mM NH4OAcaq., 35–36 min: 90%→10% MeCN/20 mM NH4OAcaq. 36–45 min: 10% MeCN/20 mM NH4OAcaq.).
At 30 min p.i., the animals were anaesthetised and blood was withdrawn by retrobulbar bleeding using glass capillaries. Immediately afterwards, the animals were euthanised by cervical dislocation, and released urine was sampled. Blood plasma was obtained from the whole blood sample by centrifugation (2 min, 8000 rpm, room temperature). In addition, the brain and spleen were isolated and homogenised in 1 mL demineralised water on ice (1000 rpm, 10 strokes; glass vessel, PTFE plunger; Potter S, B. Braun Biotech International, Göttingen, Germany).
The samples were further processed for subsequent radio-chromatographic analyses. Two consecutive extractions were performed as duplicates for plasma and brain determinations. Plasma, brain and spleen samples were added to an ice-cold MeOH/H2O mixture (9:1, v/v). The samples were vortexed for 3 min, incubated on ice for 5 min and centrifuged at 10,000 rpm for 5 min. Supernatants were collected, and the precipitates were re-dissolved in 100 µL of extraction solvent, and the extraction procedure was repeated. The activities of supernatants and precipitates were measured in a γ-counter (1480 WIZARD, Fa. Perkin Elmer, Turku, Finland), and the extraction efficiencies were calculated as the ratio of radioactivity in the supernatant to the radioactivity in the original sample (supernatant + precipitate). The supernatants from both extractions were combined, concentrated at 70 °C under argon stream up to a remaining volume of 100 µL, and subsequently analysed by analytical radio-HPLC with a gradient system (see quality control section).

C[C@H]1CC[C@@H](NC(=O)c2cc3cccnc3n(CCCC[18F])c2=O)CC1 [[^18F]LU14]
decomposition of the formulated product [1]: No decomposition | intact tracer in spleen (of the total activity detected) [2]: 50 ± 10% | intact tracer in the brain [2]: 82 ± 5% and > 80% and 82% | unchanged tracer in plasma ([2]; radio-HPLC): 17 ± 2% and 17%
